Species: Rattus norvegicus
Assay: Open TG-GATES - Regimen: Daily Repeat
Type: toxicity, organism-based, Sprague-Dawley
Set-up: regimen Daily Repeat, gender Male, age 6 weeks
Settings: in vivo, po, 60 mg/kg, […], route gavage, dose level High; for LIVER: tissue Liver; for A/G / ALP / ALT / AST / BUN / CRE / Ca / Cl / DBIL / GLC / IP / K / LDH / Na / PL / RALB / TBIL / TC / TG / TP / gamma-GTP: tissue Plasma

**Q.** With `O=[N+]([O-])c1ccc(O)c([N+](=O)[O-])c1` [2,4-DINITROPHENOL] as the compound, how does the Fbg (tissue Blood, time 28 day) read?
**A.** 294.4 mg/dL

**Q.** What about the Hb (tissue Blood, time 28 day) of the same compound?
**A.** 15.6 g/dL

**Q.** And the Ht (tissue Blood, time 28 day)?
**A.** 46.4%

**Q.** And the Lym (tissue Blood, time 28 day)?
**A.** 73.4%

**Q.** And the MCH (tissue Blood, time 28 day)?
**A.** 20.5 pg

**Q.** And the MCHC (tissue Blood, time 28 day)?
**A.** 33.6%

**Q.** And the MCV (tissue Blood, time 28 day)?
**A.** 60.9 fL

**Q.** And the Mono (tissue Blood, time 28 day)?
**A.** 6.6%

**Q.** And the Neu (tissue Blood, time 28 day)?
**A.** 18.8%

**Q.** What about the PT (tissue Blood, time 28 day) of the same compound?
**A.** 12 s

**Q.** What about the Plat (tissue Blood, time 28 day) of the same compound?
**A.** 105.6 x10_4/uL

**Q.** What about the RBC (tissue Blood, time 28 day) of the same compound?
**A.** 763.2 x10_4/ul

**Q.** What about the Ret (tissue Blood, time 28 day) of the same compound?
**A.** 2.9%

**Q.** What about the WBC (tissue Blood, time 28 day) of the same compound?
**A.** 117.4 x10_2/uL

**Q.** And the LIVER (time 7 day)?
**A.** 13.7 g

**Q.** What about the LIVER (time 14 day) of the same compound?
**A.** 17.8 g

**Q.** And the LIVER (time 28 day)?
**A.** 21.6 g

**Q.** And the A/G (time 7 day)?
**A.** 2.3

**Q.** What about the ALP (time 7 day) of the same compound?
**A.** 1317.4 IU/L

**Q.** And the ALT (time 7 day)?
**A.** 39.4 IU/L

**Q.** What about the AST (time 7 day) of the same compound?
**A.** 72 IU/L

**Q.** What about the BUN (time 7 day) of the same compound?
**A.** 17 mg/dL

**Q.** And the CRE (time 7 day)?
**A.** 0.3 mg/dL

**Q.** And the Ca (time 7 day)?
**A.** 11.5 mg/dL

**Q.** What about the Cl (time 7 day) of the same compound?
**A.** 104.2 meq/L

**Q.** And the DBIL (time 7 day)?
**A.** 0.014 mg/dL

**Q.** What about the GLC (time 7 day) of the same compound?
**A.** 167.8 mg/dL

**Q.** What about the IP (time 7 day) of the same compound?
**A.** 7.2 mg/dL

**Q.** What about the K (time 7 day) of the same compound?
**A.** 4.8 meq/L

**Q.** What about the LDH (time 7 day) of the same compound?
**A.** 116.8 IU/L

**Q.** And the Na (time 7 day)?
**A.** 140.2 meq/L

**Q.** And the PL (time 7 day)?
**A.** 150.4 mg/dL

**Q.** What about the RALB (time 7 day) of the same compound?
**A.** 4 g/dL

**Q.** And the TBIL (time 7 day)?
**A.** 0.016 mg/dL

**Q.** What about the TC (time 7 day) of the same compound?
**A.** 77.6 mg/dL

**Q.** What about the TG (time 7 day) of the same compound?
**A.** 115 mg/dL

**Q.** And the TP (time 7 day)?
**A.** 5.7 g/dL

**Q.** And the gamma-GTP (time 7 day)?
**A.** 0.8 IU/L

**Q.** What about the A/G (time 14 day) of the same compound?
**A.** 2.2

**Q.** And the ALP (time 14 day)?
**A.** 1140.6 IU/L

**Q.** What about the ALT (time 14 day) of the same compound?
**A.** 38 IU/L

**Q.** What about the AST (time 14 day) of the same compound?
**A.** 79.2 IU/L

**Q.** And the BUN (time 14 day)?
**A.** 18.6 mg/dL

**Q.** And the CRE (time 14 day)?
**A.** 0.4 mg/dL

**Q.** What about the Ca (time 14 day) of the same compound?
**A.** 11.8 mg/dL

**Q.** What about the Cl (time 14 day) of the same compound?
**A.** 104.6 meq/L

**Q.** What about the DBIL (time 14 day) of the same compound?
**A.** 0.014 mg/dL

**Q.** And the GLC (time 14 day)?
**A.** 167.8 mg/dL

**Q.** What about the IP (time 14 day) of the same compound?
**A.** 6 mg/dL

**Q.** And the K (time 14 day)?
**A.** 4.1 meq/L

**Q.** What about the LDH (time 14 day) of the same compound?
**A.** 134.2 IU/L

**Q.** What about the Na (time 14 day) of the same compound?
**A.** 138 meq/L

**Q.** What about the PL (time 14 day) of the same compound?
**A.** 151.2 mg/dL

**Q.** And the RALB (time 14 day)?
**A.** 4.1 g/dL

**Q.** What about the TBIL (time 14 day) of the same compound?
**A.** 0.02 mg/dL

**Q.** And the TC (time 14 day)?
**A.** 67.4 mg/dL

**Q.** And the TG (time 14 day)?
**A.** 208.6 mg/dL

**Q.** What about the TP (time 14 day) of the same compound?
**A.** 6 g/dL

**Q.** And the gamma-GTP (time 14 day)?
**A.** 0 IU/L

**Q.** And the A/G (time 28 day)?
**A.** 1.9

**Q.** And the ALP (time 28 day)?
**A.** 925 IU/L

**Q.** What about the ALT (time 28 day) of the same compound?
**A.** 45.6 IU/L

**Q.** And the AST (time 28 day)?
**A.** 93.8 IU/L

**Q.** What about the BUN (time 28 day) of the same compound?
**A.** 20.8 mg/dL

**Q.** And the CRE (time 28 day)?
**A.** 0.5 mg/dL

**Q.** What about the Ca (time 28 day) of the same compound?
**A.** 11.4 mg/dL

**Q.** What about the Cl (time 28 day) of the same compound?
**A.** 105 meq/L

**Q.** And the DBIL (time 28 day)?
**A.** 0.018 mg/dL

**Q.** And the GLC (time 28 day)?
**A.** 167.6 mg/dL

**Q.** And the IP (time 28 day)?
**A.** 5 mg/dL

**Q.** And the K (time 28 day)?
**A.** 4.2 meq/L

**Q.** And the LDH (time 28 day)?
**A.** 160 IU/L

**Q.** What about the Na (time 28 day) of the same compound?
**A.** 140.2 meq/L

**Q.** And the PL (time 28 day)?
**A.** 144.4 mg/dL

**Q.** And the RALB (time 28 day)?
**A.** 4.1 g/dL

**Q.** And the TBIL (time 28 day)?
**A.** 0.026 mg/dL

**Q.** What about the TC (time 28 day) of the same compound?
**A.** 69 mg/dL

**Q.** And the TG (time 28 day)?
**A.** 177.8 mg/dL

**Q.** What about the TP (time 28 day) of the same compound?
**A.** 6.3 g/dL

**Q.** And the gamma-GTP (time 28 day)?
**A.** 0.6 IU/L
